The series has as its system 10-mer complementary DNA. Put plainly: Tm between PNA derivatives and 10-mer complementary DNA (N- or C-terminal). In kind it is binding. The settings on record: uncorrected. The procedure: A mixed solution of 4 μM 10-mer PNA oligomer and 4 μM complementary 10-mer DNA or RNA in 4 mL aqueous buffer (pH 7.16, 10 mM sodium phosphate, 100 mM NaCl) in 15 mL polypropylene falcon tube was incubated at 90° C. for a minute and slowly cooled down to ambient temperature. Then the solution was transferred into a 4 mL quartz UV cuvette, and subjected to Tm measurement at 260 nm on a UV/Visible spectrophotometer as described in the prior art [PCT/KR2009/001256] or with minor modifications. The DNA and RNA for Tm measurement were purchased from Bioneer (www.bioneer.com, Dajeon, Republic of Korea) and used without further purification.
PNA derivatives of Formula I were evaluated for their binding affinity for 10-mer DNAs complementarily targeting either the N-terminal or C-terminal. The binding affinity was assessed by the Tm value for the duplex between PNA and 10-mer complementary DNA. The duplex between PNA derivatives and DNAs of full complementarity usually show Tm values too high to be reliably determined in aqueous buffer solution. The aqueous buffer solution tends to boil off during Tm measurement.

Oligonucleotides are written 5' to 3', each unit as a sugar letter and its base; * is a phosphorothioate linkage, no mark a phosphodiester; rarer units and linkages stand in square brackets, end groups in braces. Plain capitals give the bases only. {Fethoc} = N-terminal Fethoc cap; [C(1O2)] = modified PNA monomer acting as cytosine, C(pOq) type, 1O2; [A(5)] = modified PNA monomer acting as adenine, A(p) type, p=5; [A(6)] = modified PNA monomer acting as adenine, A(p) type, p=6; [G(5)] = modified PNA monomer acting as guanine, G(p) type, p=5; [G(6)] = modified PNA monomer acting as guanine, G(p) type, p=6; [PNA-N] = PNA monomer with natural nucleobase (N: the base); {NH2} = C-terminal amide; [G(G)] = code of the source, not defined here; [Lys] = lysine residue in the chain; [Val] = valine residue in the chain; {Piv} = N-terminal pivaloyl group

In the case of “Fethoc-A(6)GA-A(6)CT-CA(6)T-CC(1O2)T-A(6)CT-TA(6)-NH2 (antisense AGAACTCATCCTACTTA; all peptide nucleic acid (PNA), [A(6)] at 1, 4, 8, 13, 17, [C(1O2)] at 11, 5' {Fethoc}, 3' {NH2}; peptide nucleic acid written N to C) [HIF-ASO 11]”, the “Tm Value, 10-mer DNA against C-Terminal” value came to 61.0 °C and the “Tm Value, 10-mer DNA against N-Terminal” value was determined as 73.4 °C.
Consider “Fethoc-A(5)AG-TG(6)T-A(5)CC(1O2)-TAA-A(5)-NH2 (AAGTGTACCTAAA; splice-switching; all peptide nucleic acid (PNA), [A(5)] at 1, 7, 13, [G(6)] at 5, [C(1O2)] at 9, 5' {Fethoc}, 3' {NH2}; peptide nucleic acid written N to C) [SCN-ASO 24]”, for which the “Tm Value, 10-mer DNA against C-Terminal” value was found to be 66.0 °C and the “Tm Value, 10-mer DNA against N-Terminal” value amounted to 77.0 °C.
On the same counts, the results for “Fethoc-AA(5)G-TG(6)T-A(5)CC(1O2)-TAA(5)-A-NH2 (AAGTGTACCTAAA; splice-switching; all peptide nucleic acid (PNA), [A(5)] at 2, 7, 12, [G(6)] at 5, [C(1O2)] at 9, 5' {Fethoc}, 3' {NH2}; peptide nucleic acid written N to C) [SCN-ASO 22]” are 65.0 °C and 74.0 °C.
For “Fethoc-CTT-A(5)CG(6)-C(1O2)AA(5)-AA(5)A-C(1O2)AA(5)-NH2 (CTTACGCAAAAACAA; all peptide nucleic acid (PNA), [A(5)] at 4, 9, 11, 15, [G(6)] at 6, [C(1O2)] at 7, 13, 5' {Fethoc}, 3' {NH2}; peptide nucleic acid written N to C) [SCN-ASO 12]”, in that order: 77.0 °C and 76.0 °C.
On the same counts, the results for “Fethoc-TA(5)C-CAG(6)-GC(1O2)A-A(5)GG(6)-C-NH2 (antisense TACCAGGCAAGGC; all peptide nucleic acid (PNA), [A(5)] at 2, 10, [G(6)] at 6, 12, [C(1O2)] at 8, 5' {Fethoc}, 3' {NH2}; peptide nucleic acid backbone) [AR-ASO 4]” are 84.5 °C and 84.3 °C.
Consider “Fethoc-CTC(1O2)-A(6)TC-CTA(6)-C(1O2)TT-AA(6)C-NH2 (CTCATCCTACTTAAC; all peptide nucleic acid (PNA), [C(1O2)] at 3, 10, [A(6)] at 4, 9, 14, 5' {Fethoc}, 3' {NH2}; peptide nucleic acid backbone) [HIF-ASO 8]”, for which the “Tm Value, 10-mer DNA against C-Terminal” value worked out at 61.0 °C and the “Tm Value, 10-mer DNA against N-Terminal” value came to 73.0 °C.
On the same counts, the results for “Fethoc-AA(5)G-TG(5)T-A(5)CC(1O2)-TA(5)A-A(5)-NH2 (AAGTGTACCTAAA; splice-switching; all peptide nucleic acid (PNA), [A(5)] at 2, 7, 11, 13, [G(5)] at 5, [C(1O2)] at 9, 5' {Fethoc}, 3' {NH2}; peptide nucleic acid written N to C) [SCN-ASO 26]” are 72.0 °C and 75.0 °C.
Regarding “Fethoc-G(5)AA(6)-CTT-A(6)TC-CTA(6)-C(1O2)T-NH2 (GAACTTATCCTACT; splice-switching; all peptide nucleic acid (PNA), [G(5)] at 1, [A(6)] at 3, 7, 12, [C(1O2)] at 13, 5' {Fethoc}, 3' {NH2}; peptide nucleic acid backbone) [HIF-ASO 5]”, the “Tm Value, 10-mer DNA against C-Terminal” value stood at 58.0 °C and the “Tm Value, 10-mer DNA against N-Terminal” value turned out to be 62.0 °C.
Take “Piv-A(6)TC-CTA(6)-C(1O2)TT-A(5)AC-NH2 (ATCCTACTTAAC; splice-switching; all peptide nucleic acid (PNA), [A(6)] at 1, 6, [C(1O2)] at 7, [A(5)] at 10, 5' {Piv}, 3' {NH2}; peptide nucleic acid backbone) [HIF-ASO 9]”: the “Tm Value, 10-mer DNA against C-Terminal” value turned out to be 59.0 °C and the “Tm Value, 10-mer DNA against N-Terminal” value is 60.9 °C.
For “Fethoc-CA(6)T-CA(6)T-TTG(5)-TTA(5)-CCC(1O2)-TG(5)-NH2 (CATCATTTGTTACCCTG; all peptide nucleic acid (PNA), [A(6)] at 2, 5, [G(5)] at 9, 17, [A(5)] at 12, [C(1O2)] at 15, 5' {Fethoc}, 3' {NH2}; peptide nucleic acid written N to C) [SNAP-ASO 10]”, in that order: 68.0 °C and 61.0 °C.
“Fethoc-A(6)TT-TG(5)T-TA(6)C-C(1O2)CT-G(5)G-NH2 (ATTTGTTACCCTGG; all peptide nucleic acid (PNA), [A(6)] at 1, 8, [G(5)] at 5, 13, [C(1O2)] at 10, 5' {Fethoc}, 3' {NH2}; peptide nucleic acid written N to C) [SNAP-ASO 12]”: the “Tm Value, 10-mer DNA against C-Terminal” value worked out at 74.0 °C and the “Tm Value, 10-mer DNA against N-Terminal” value came out at 62.0 °C.
On the same counts, the results for “Fethoc-A(6)TT-TG(G)T-TA(5)C-C(1O2)CT-G(5)-NH2 (antisense ATTTGTTACCCTG; all peptide nucleic acid (PNA), [A(6)] at 1, [G(G)] at 5, [A(5)] at 8, [C(1O2)] at 10, [G(5)] at 13, 5' {Fethoc}, 3' {NH2}; peptide nucleic acid written N to C) [SNAP-ASO 9]” are 76.0 °C and 62.0 °C.
With “Fethoc-CA(6)T-TTG(5)-TTA(5)-CCC(1O2)-TG(5)-NH2 (antisense CATTTGTTACCCTG; all peptide nucleic acid (PNA), [A(6)] at 2, [G(5)] at 6, 14, [A(5)] at 9, [C(1O2)] at 12, 5' {Fethoc}, 3' {NH2}; peptide nucleic acid written N to C) [SNAP-ASO 8]”, the “Tm Value, 10-mer DNA against C-Terminal” value was 68.0 °C and the “Tm Value, 10-mer DNA against N-Terminal” value was determined as 58.0 °C.
“Fethoc-TG(6)T-TA(5)A-A(5)TA(5)-CGC(1O2)-AA(5)A-A(5)A-NH2 (TGTTAAATACGCAAAAA; all peptide nucleic acid (PNA), [G(6)] at 2, [A(5)] at 5, 7, 9, 14, 16, [C(1O2)] at 12, 5' {Fethoc}, 3' {NH2}; peptide nucleic acid written N to C) [SCN-ASO 4]”: the “Tm Value, 10-mer DNA against C-Terminal” value worked out at 71.6 °C and the “Tm Value, 10-mer DNA against N-Terminal” value amounted to 63.5 °C.
For “Piv-Lys-AA(6)C-TTA(6)-TCC(1O2)-TA(6)C-TTA(5)-Val-NH2 (antisense {Piv}[Lys][PNA-A][PNA-A(6)][PNA-C][PNA-T][PNA-T][PNA-A(6)][PNA-T][PNA-C][PNA-C(1O2)][PNA-T][PNA-A(6)][PNA-C][PNA-T][PNA-T][PNA-A(5)][Val]-{NH2}; peptide nucleic acid backbone) [HIF-ASO 10]”, in that order: 60.0 °C and 61.0 °C.
For “Fethoc-GA(5)A-C(1O2)TT-A(5)TC-CTA(5)-CT-NH2 (GAACTTATCCTACT; splice-switching; all peptide nucleic acid (PNA), [A(5)] at 2, 7, 12, [C(1O2)] at 4, 5' {Fethoc}, 3' {NH2}; peptide nucleic acid backbone) [HIF-ASO 4]”, in that order: 53.4 °C and 66.0 °C.

The values are drawn from patent US12624068B2, “Exon skipping by peptide nucleic acid derivatives” (OliPass Corporation, priority 2016, dated 2026).
